Our source for the Kd values is patent publication EP4667483A1, “HUMAN TRANSFERRIN RECEPTOR-BINDING PEPTIDE” (JCR Pharmaceuticals Co., Ltd., priority 2023, dated 2024).

For test [1], the target named is T1, human transferrin receptor (hTfR) (Homo sapiens, UniProt P02786). The test can be described thus: SPR measurement under pH 7.4 conditions (Biacore T200, CM3 chip, hTfR captured by His Tag antibody). The class given is binding. The following applies: pH 7.4, single-cycle kinetics; read-out: hTfR SPR pH7.4 KD. (In SPR one partner is held on a chip, and binding of the other changes the refractive index at the surface.)
T1 sequence (P02786 whole entry): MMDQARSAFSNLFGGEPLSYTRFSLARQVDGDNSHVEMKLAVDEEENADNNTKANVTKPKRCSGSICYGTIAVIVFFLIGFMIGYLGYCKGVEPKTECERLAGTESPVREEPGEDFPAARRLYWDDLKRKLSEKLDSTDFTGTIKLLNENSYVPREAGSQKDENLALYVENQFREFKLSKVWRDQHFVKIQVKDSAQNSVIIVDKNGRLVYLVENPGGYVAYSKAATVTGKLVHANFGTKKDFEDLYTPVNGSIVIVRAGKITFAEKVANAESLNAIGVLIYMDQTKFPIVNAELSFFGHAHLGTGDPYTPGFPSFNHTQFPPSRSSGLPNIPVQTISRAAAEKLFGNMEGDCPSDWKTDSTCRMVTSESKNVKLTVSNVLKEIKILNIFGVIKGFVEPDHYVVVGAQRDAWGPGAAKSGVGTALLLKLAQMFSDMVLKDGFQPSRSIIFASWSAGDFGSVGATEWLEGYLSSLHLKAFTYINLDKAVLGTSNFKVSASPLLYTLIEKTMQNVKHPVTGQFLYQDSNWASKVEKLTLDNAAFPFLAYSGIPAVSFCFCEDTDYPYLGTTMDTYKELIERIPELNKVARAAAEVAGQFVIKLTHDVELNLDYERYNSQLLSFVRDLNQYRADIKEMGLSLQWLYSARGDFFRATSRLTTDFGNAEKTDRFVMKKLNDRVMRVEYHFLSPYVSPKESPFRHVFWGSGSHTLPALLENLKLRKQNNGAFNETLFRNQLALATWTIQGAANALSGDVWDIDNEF

Test [2] addresses T1, human transferrin receptor (hTfR). The test can be described thus: SPR measurement under pH 6.0 conditions (Biacore T200, NTA chip, immobilized hTfR). It counts as binding. The settings on record: pH 6.0, single-cycle kinetics; read-out: hTfR SPR pH6.0 KD. How it is done:
Molecular interactions between the synthesized peptides and the transferrin receptor (hTfR) were evaluated by surface plasmon resonance (SPR) using the following method. The specific assay procedure is described below.
An NTA sensor chip (Cytiva) was inserted in a Biacore T200 (Cytiva), a priming operation was performed 3 times with a running buffer: HBS-P+ pH 6.0 (Cytiva), and an equilibrium state was created at a flow rate of 30 µL/min. A ligand immobilization operation was carried out at a flow rate of 10 µL/min.
The surface of the NTA sensor chip was washed with 350 mM EDTA solution, nickel ions were loaded into the carbomethyldextran chains of the sensor chip with a 500 µM aqueous nickel chloride solution, and then washing was performed with 3 mM EDTA solution. After mixing 50 µL of each of 60 mM EDC solution (Cytiva) and 650 mM NHS solution (Cytiva), the mixture was reacted for 420 seconds at a flow rate of 10 µL/min. 150 µL of 0.2 µM hTfR solution was prepared by diluting with 10 mM acetic acid solution (pH 5.0), and reacted for 420 seconds at a flow rate of 10 µL/min to immobilize hTfR on the NTA sensor chip. For the human transferrin receptor (hTfR), the recombinant hTfR described in Example 2 of WO2018/124121 was used. After immobilization, capping was performed by reacting with 1.0 M ethanolamine aqueous solution (Cytiva) at a flow rate of 10 µL/min for 420 seconds. Peptide lysate prepared in DMSO to 10 mM was diluted with the running buffer to a final concentration of 10 µM peptide lysate, and then peptide solutions of 250 nM, 125 nM, 62.5 nM, 25 nM, and 12.5 nM were prepared. The kinetics of the peptide against hTfR was obtained by SPR measurement using the above samples.
The kinetic evaluation model was single-cycle kinetics, and curve fitting was performed using Biacore T200 Evaluation Software Version 3.0 (Cytiva). The binding of the peptide to hTfR was evaluated by performing curve fitting on the obtained sensorgram by the least squares method and obtaining the kon value, the koff value, and the KD value.

Numbered stars: 1 amine (or outer) side, 2 acyl side, 3 side chain; on linkers, the order of the positions; unused ones are H or OH. Bridge positions count the residues as written; N and C are the ends. Square brackets hold non-standard residues; d marks the D form. Side chains are listed from the residue outwards. Peptide text beside a SMILES is read from it. * marks the point of attachment. Trp(1-CH2COOH) = N[C@@H](Cc1cn(CC(=O)O)c2ccccc12)C(=O)O; Nle(6-morpholino) = N[C@@H](CCCCN1CCOCC1)C(=O)O; Trp(7-aza) = N[C@@H](Cc1c[nH]c2ncccc12)C(=O)O; NMePhe(3-Cl) = CN[C@@H](Cc1cccc(Cl)c1)C(=O)O; Piperazinyl(4-CH2COOH) = O=C(O)CN1CCN(*)CC1; 3Pal(6-NH2) = Nc1ccc(C[C@H](N)C(=O)O)cn1; NMeY = CN[C@@H](Cc1ccc(O)cc1)C(=O)O; 4Pal = N[C@@H](Cc1ccncc1)C(=O)O; PEG4 = NCCOCCOCCOCCOCCC(=O)O; Carboxymethyl = O=C(O)C*; CO = O=C([*:1])[*:2]

Regarding `CC[C@H](C)[C@@H]1NC(=O)[C@H](Cc2ccc(OC)cc2)NC(=O)[C@H](Cc2ccc(N)nc2)NC(=O)[C@H](CC(N)=O)NC(=O)[C@H](Cc2c[nH]c3ncccc23)NC(=O)[C@H](C(C)C)NC(=O)[C@H](Cc2cccc(Cl)c2)N(C)C(=O)[C@H](C(C)C)NC(=O)[C@H](C)NC(=O)CSC[C@@H](C(=O)NCCOCCOCCOCCOCCC(N)=O)NC(=O)[C@H](Cc2ccc(O)cc2)N(C)C(=O)[C@H](Cc2ccncc2)NC(=O)[C@H](CCCNC(=N)N)NC(=O)[C@H](CCCCN2CCOCC2)NC(=O)[C@H]([C@@H](C)CC)NC1=O` [compound 2] ({CH2CO}-AV[NMePhe(3-Cl)]V[Trp(7-aza)]N[3Pal(6-NH2)]Y(Me)II[Nle(6-morpholino)]R[4Pal][NMeY]C[PEG4]-NH2; thioether N-15), the Kd is 0.888 nM in test [1] and 16.2 nM in test [2].
Consider `CC[C@H](C)[C@@H]1NC(=O)[C@H](Cc2ccc(OC)cc2)NC(=O)[C@H](Cc2ccc(N)nc2)NC(=O)[C@H](CC(N)=O)NC(=O)[C@H](Cc2c[nH]c3ncccc23)NC(=O)[C@H](C(C)C)NC(=O)[C@H](Cc2cccc(Cl)c2)N(C)C(=O)[C@H](C(C)C)NC(=O)[C@H](C)NC(=O)CSC[C@@H](C(=O)NCCOCCOCCOCCOCCC(N)=O)NC(=O)[C@H](Cc2ccc(O)cc2)N(C)C(=O)[C@H](Cc2ccncc2)NC(=O)[C@H](CCCCN2CCOCC2)NC(=O)[C@H](CCCNC(=N)N)NC(=O)[C@H]([C@@H](C)CC)NC1=O` [compound 3] ({CH2CO}-AV[NMePhe(3-Cl)]V[Trp(7-aza)]N[3Pal(6-NH2)]Y(Me)IIR[Nle(6-morpholino)][4Pal][NMeY]C[PEG4]-NH2; thioether N-15), for which the Kd in test [1] was 2.63 nM; in test [2], 16.1 nM.
As for `CC[C@H](C)[C@@H]1NC(=O)[C@H](Cc2ccc(OC)cc2)NC(=O)[C@H](Cc2ccc(N)nc2)NC(=O)[C@H](CC(N)=O)NC(=O)[C@H](Cc2c[nH]c3ncccc23)NC(=O)[C@H](C(C)C)NC(=O)[C@H](Cc2cccc(Cl)c2)N(C)C(=O)[C@H](C(C)C)NC(=O)[C@H](C)NC(=O)CSC[C@@H](C(=O)NCCOCCOCCOCCOCCC(N)=O)NC(=O)[C@H](Cc2ccc(O)cc2)N(C)C(=O)[C@H](Cc2ccncc2)NC(=O)[C@H](CCCCN2CCOCC2)NC(=O)[C@H](CCCCN2CCOCC2)NC(=O)[C@H]([C@@H](C)CC)NC1=O` [compound 4] ({CH2CO}-AV[NMePhe(3-Cl)]V[Trp(7-aza)]N[3Pal(6-NH2)]Y(Me)II[Nle(6-morpholino)][Nle(6-morpholino)][4Pal][NMeY]C[PEG4]-NH2; thioether N-15), the values for the equilibrium dissociation constant (Kd) in test [1] and in test [2] were 2.19 nM and 29.7 nM, respectively.
As to `CC[C@H](C)[C@@H]1NC(=O)[C@H](Cc2ccc(OC)cc2)NC(=O)[C@H](Cc2ccc(N)nc2)NC(=O)[C@H](CC(N)=O)NC(=O)[C@H](Cc2c[nH]c3ncccc23)NC(=O)[C@H](C(C)C)NC(=O)[C@H](Cc2cccc(Cl)c2)N(C)C(=O)[C@H](C(C)C)NC(=O)[C@H](C)NC(=O)CSC[C@@H](C(=O)NCCOCCOCCOCCOCCC(N)=O)NC(=O)[C@H](Cc2ccc(O)cc2)N(C)C(=O)[C@H](Cc2ccncc2)NC(=O)[C@H](CCCCNC(=O)N2CCN(CC(=O)O)CC2)NC(=O)[C@H](CCCCN2CCOCC2)NC(=O)[C@H]([C@@H](C)CC)NC1=O` [compound 5] ({CH2CO}-AV[NMePhe(3-Cl)]V[Trp(7-aza)]N[3Pal(6-NH2)]Y(Me)II[Nle(6-morpholino)]K([CO-Piperazinyl(4-CH2COOH)])[4Pal][NMeY]C[PEG4]-NH2; thioether N-15), the Kd in test [1] came out at 6.31 nM; in test [2] it was 117 nM.
Take `CC[C@H](C)[C@@H]1NC(=O)[C@H](Cc2ccc(OC)cc2)NC(=O)[C@H](Cc2ccc(N)nc2)NC(=O)[C@H](CC(N)=O)NC(=O)[C@H](Cc2cn(CC(=O)O)c3ccccc23)NC(=O)[C@H](C(C)C)NC(=O)[C@H](Cc2cccc(Cl)c2)N(C)C(=O)[C@H](C(C)C)NC(=O)[C@H](C)NC(=O)CSC[C@@H](C(=O)NCCOCCOCCOCCOCCC(N)=O)NC(=O)[C@H](Cc2ccc(O)cc2)N(C)C(=O)[C@H](Cc2ccncc2)NC(=O)[C@H](CCCCN2CCOCC2)NC(=O)[C@H](CCCCN2CCOCC2)NC(=O)[C@H]([C@@H](C)CC)NC1=O` [compound 6] ({CH2CO}-AV[NMePhe(3-Cl)]V[Trp(1-CH2COOH)]N[3Pal(6-NH2)]Y(Me)II[Nle(6-morpholino)][Nle(6-morpholino)][4Pal][NMeY]C[PEG4]-NH2; thioether N-15): the Kd came out at 6.56 nM in test [1] and 21 nM in test [2].
In the same order, the values of `CC[C@H](C)[C@@H]1NC(=O)[C@H](Cc2ccc(OCC(=O)O)cc2)NC(=O)[C@H](Cc2ccc(N)nc2)NC(=O)[C@H](CC(N)=O)NC(=O)[C@H](Cc2c[nH]c3ncccc23)NC(=O)[C@H](C(C)C)NC(=O)[C@H](Cc2cccc(Cl)c2)N(C)C(=O)[C@H](C(C)C)NC(=O)[C@H](C)NC(=O)CSC[C@@H](C(=O)NCCOCCOCCOCCOCCC(N)=O)NC(=O)[C@H](Cc2ccc(O)cc2)N(C)C(=O)[C@H](Cc2ccncc2)NC(=O)[C@H](CCCCN2CCOCC2)NC(=O)[C@H](CCCCN2CCOCC2)NC(=O)[C@H]([C@@H](C)CC)NC1=O` [compound 7] ({CH2CO}-AV[NMePhe(3-Cl)]V[Trp(7-aza)]N[3Pal(6-NH2)]Y(Carboxymethyl)II[Nle(6-morpholino)][Nle(6-morpholino)][4Pal][NMeY]C[PEG4]-NH2; thioether N-15) are 16.3 nM and 89.8 nM.
Turning to `CC[C@H](C)[C@@H]1NC(=O)[C@H](Cc2ccc(OC)cc2)NC(=O)[C@H](Cc2ccc(N)nc2)NC(=O)[C@H](CC(N)=O)NC(=O)[C@H](Cc2cn(CC(=O)O)c3ccccc23)NC(=O)[C@H](C(C)C)NC(=O)[C@H](Cc2cccc(Cl)c2)N(C)C(=O)[C@H](C(C)C)NC(=O)[C@H](C)NC(=O)CSC[C@@H](C(=O)NCCOCCOCCOCCOCCC(N)=O)NC(=O)[C@H](Cc2ccc(O)cc2)N(C)C(=O)[C@H](Cc2ccncc2)NC(=O)[C@H](CCCCNC(=O)N2CCN(CC(=O)O)CC2)NC(=O)[C@H](CCCCN2CCOCC2)NC(=O)[C@H]([C@@H](C)CC)NC1=O` [compound 8] ({CH2CO}-AV[NMePhe(3-Cl)]V[Trp(1-CH2COOH)]N[3Pal(6-NH2)]Y(Me)II[Nle(6-morpholino)]K([CO-Piperazinyl(4-CH2COOH)])[4Pal][NMeY]C[PEG4]-NH2; thioether N-15), the Kd came out at 10.7 nM in test [1] and 113 nM in test [2].
`CC[C@H](C)[C@@H]1NC(=O)[C@H](Cc2ccc(OCC(=O)O)cc2)NC(=O)[C@H](Cc2ccc(N)nc2)NC(=O)[C@H](CC(N)=O)NC(=O)[C@H](Cc2c[nH]c3ncccc23)NC(=O)[C@H](C(C)C)NC(=O)[C@H](Cc2cccc(Cl)c2)N(C)C(=O)[C@H](C(C)C)NC(=O)[C@H](C)NC(=O)CSC[C@@H](C(=O)NCCOCCOCCOCCOCCC(N)=O)NC(=O)[C@H](Cc2ccc(O)cc2)N(C)C(=O)[C@H](Cc2ccncc2)NC(=O)[C@H](CCCCNC(=O)N2CCN(CC(=O)O)CC2)NC(=O)[C@H](CCCCN2CCOCC2)NC(=O)[C@H]([C@@H](C)CC)NC1=O` [compound 9] ({CH2CO}-AV[NMePhe(3-Cl)]V[Trp(7-aza)]N[3Pal(6-NH2)]Y(Carboxymethyl)II[Nle(6-morpholino)]K([CO-Piperazinyl(4-CH2COOH)])[4Pal][NMeY]C[PEG4]-NH2; thioether N-15): the figures for the Kd in test [1] and in test [2] were 29.1 nM and 774 nM, respectively.
For the molecule `CC[C@H](C)[C@@H]1NC(=O)[C@H](Cc2ccc(OC)cc2)NC(=O)[C@H](Cc2ccc(N)nc2)NC(=O)[C@H](CC(N)=O)NC(=O)[C@H](Cc2c[nH]c3ncccc23)NC(=O)[C@H](C(C)C)NC(=O)[C@H](Cc2cccc(Cl)c2)N(C)C(=O)[C@H](C(C)C)NC(=O)[C@H](C)NC(=O)CSC[C@@H](C(=O)NCCOCCOCCOCCOCCC(N)=O)NC(=O)[C@H](Cc2ccc(O)cc2)N(C)C(=O)[C@H](Cc2ccncc2)NC(=O)[C@H](CCCNC(=N)N)NC(=O)[C@H](CCC(=O)NC[C@H](O)[C@@H](O)[C@H](O)[C@H](O)CO)NC(=O)[C@H]([C@@H](C)CC)NC1=O` [compound 10], the Kd in test [1] was found to be 2.5 nM; in test [2], 36.6 nM.
Turning to `CC[C@H](C)[C@@H]1NC(=O)[C@H](Cc2ccc(OC)cc2)NC(=O)[C@H](Cc2ccc(N)nc2)NC(=O)[C@H](CC(N)=O)NC(=O)[C@H](Cc2c[nH]c3ncccc23)NC(=O)[C@H](C(C)C)NC(=O)[C@H](Cc2cccc(Cl)c2)N(C)C(=O)[C@H](C(C)C)NC(=O)[C@H](C)NC(=O)CSC[C@@H](C(=O)NCCOCCOCCOCCOCCC(N)=O)NC(=O)[C@H](Cc2ccc(O)cc2)N(C)C(=O)[C@H](Cc2ccncc2)NC(=O)[C@H](CCCNC(=N)N)NC(=O)[C@H](CCC(=O)NCCOCCOCCOCCOCCOCCOCCOCCOC)NC(=O)[C@H]([C@@H](C)CC)NC1=O` [compound 11], the figures for the Kd in test [1] and in test [2] were 7.1 nM and 110 nM, respectively.

One may read the Kd as the free concentration of one partner at which half of the binding sites on the other are occupied at equilibrium, for simple one-to-one binding.
